Experimental data as given in PubChem BioAssay AID1404 (The Scripps Research Institute Molecular Screening Center, 2008).
Activity calls are given as the source filed them.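 The calls were made as follows: active = EC50 for STAT3 reporter activation at or below 10 µM; inactive = the rest.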

System: U3A cells, IL-6 STAT3 luciferase reporter, luminescence
Assay: IL-6-driven STAT3 luciferase signal enhancement – U3A cells, STAT1-deficient, luminescence, IL-6 stimulus, counter-screen for STAT1 activator project, dose response (AID 1404)

Row | Structure (SMILES) | EC50
1 | CN(C)c1nc(N)nc(CSc2nc3cc(Cl)ccc3o2)n1 | > 55.7 µM (inactive)
2 | COc1ccc2[nH]c3c(c2c1)CCn1c-3nc2ccccc2c1=O | > 55.7 µM (inactive)
3 | CCCOC(=O)c1ccc(-c2ccc(C=O)o2)cc1 | > 55.7 µM (inactive)
4 | O=C(Nc1nccs1)c1ccc(-c2ccc([N+](=O)[O-])cc2)o1 | > 55.7 µM (inactive)
5 | c1csc(C2=NNC(=NC3CCCCC3)SC2)c1 | > 55.7 µM (inactive)
6 | O=C(Nc1ccc(-c2nc3cccnc3s2)cc1)c1ccco1 | > 55.7 µM (inactive)
7 | CC(=O)NC(=S)Nc1sc2c(c1C#N)CCCCC2 | > 55.7 µM (inactive)
8 | O=C(Nc1cccc(Cl)c1)c1ccc2c(=O)n3c(nc2c1)CCCCC3 | > 55.7 µM (inactive)
9 | O=C(OCc1csc(-c2ccccc2)n1)c1cccs1 | > 55.7 µM (inactive)
10 | Cc1ccc(C(=O)Nc2nc3ccccc3s2)s1 | > 55.7 µM (inactive)
11 | COc1ccc(/C=C/C(=O)Nc2ccccc2)cc1OC | > 55.7 µM (inactive)
12 | CC(=O)Nc1ccc(-c2csc(Nc3cccc(C)n3)n2)cc1 | > 55.7 µM (inactive)
13 | COc1ccc(-c2csc(N3C(=O)CNC3=S)n2)cc1 | > 55.7 µM (inactive)
14 | COc1ccc(-c2nc3ccc([N+](=O)[O-])cc3[nH]2)cc1 | > 55.7 µM (inactive)
15 | COc1cc(NC(=O)c2csc3c2CCCC3)ncn1 | > 55.7 µM (inactive)
16 | COc1ccc(Nc2oc(-c3cccs3)nc2C#N)cc1 | > 55.7 µM (inactive)
17 | Nc1ccccc1Nc1cc(-c2ccccc2)[nH]n1 | > 55.7 µM (inactive)
18 | CCC(C)NC(=O)c1cc(-c2ccc(OC)cc2)on1 (stereo unspecified) | > 55.7 µM (inactive)
19 | Fc1ccccc1CSc1nnc(-c2cccnc2)o1 | > 55.7 µM (inactive)
20 | CC(C)(C)N=C1NN=C(c2cc3ccccc3o2)CS1 | > 55.7 µM (inactive)
21 | CC(=O)Nc1ccccc1C(=O)OCc1cccc(F)c1 | > 55.7 µM (inactive)
22 | COc1cccc(NC(=O)Nc2ccc(C(C)(C)C)cc2)c1 | > 55.7 µM (inactive)

Row | Structure (SMILES) | EC50
23 | C=CCn1c(C)cc(C(=O)CSc2nc3ccccc3o2)c1C | > 55.7 µM (inactive)
24 | CCc1ccc(Nc2ncc3c(n2)CC(C)CC3=O)cc1 (stereo unspecified) | > 55.7 µM (inactive)
25 | CC(=O)Nc1cccc(-c2cnc3ccccc3n2)c1 | > 55.7 µM (inactive)
26 | COc1cccc(N/C=C/C(=O)c2ccc(Cl)cc2)c1 | > 55.7 µM (inactive)
27 | CN1C(=O)/C(=C/C=C2\SCCN2C)SC1=S | > 55.7 µM (inactive)
28 | COc1ccc2nc(Nc3nc(C)c(C(C)=O)s3)sc2c1 | > 55.7 µM (inactive)
29 | CCOC(=O)/C(C#N)=C/c1cc(C)n(-c2ccccc2)c1C | > 55.7 µM (inactive)
30 | CCOC(=O)CSc1nc(-c2ccncc2)ccc1C#N | > 55.7 µM (inactive)
31 | Nc1ccc2oc(-c3ccccc3Cl)nc2c1 | > 55.7 µM (inactive)
32 | Cc1ccc(-c2cc(N)n(-c3ccccc3)n2)cc1 | > 55.7 µM (inactive)
33 | Cc1ccc(/C=C/C(=O)Nc2ccccc2C(N)=O)cc1 | > 55.7 µM (inactive)
34 | O=C(/C=C/c1ccco1)Nc1ccccn1 | > 55.7 µM (inactive)
35 | Cc1ccc2nc(NC(=O)CCn3cccc3)sc2c1 | > 55.7 µM (inactive)
36 | Cc1cc(C(=O)NCCC2=CCCCC2)c(C)o1 | > 55.7 µM (inactive)
37 | Clc1ccc(-n2ncc3c(N4CCCC4)ncnc32)cc1 | > 55.7 µM (inactive)
38 | O=C(NCCC1=CCCCC1)c1ccc(F)cc1 | > 55.7 µM (inactive)
39 | Cc1ncsc1C(=O)Nc1nc2c(s1)CCCC2 | > 55.7 µM (inactive)
40 | NC(=O)Cc1ccc2sc(-c3ccccc3)nc2c1 | > 55.7 µM (inactive)
41 | Cc1ccc(C(=O)Nc2nc3c(s2)CCCC3)o1 | > 55.7 µM (inactive)
42 | c1ccc(CNc2ccc3ccccc3n2)nc1 | > 55.7 µM (inactive)
43 | O=C(CCc1nnc(CCCc2ccccc2)o1)N1CCCCCC1 | > 55.7 µM (inactive)
44 | Cc1cccc(Nc2n[nH]c(C)c2[N+](=O)[O-])c1 | > 55.7 µM (inactive)

Row | Structure (SMILES) | EC50
45 | C=CCNc1nc(-c2cc3ccccc3o2)cs1 | > 55.7 µM (inactive)
46 | O=C(Nc1ccc2c(c1)OCCO2)c1ccc(Br)s1 | > 55.7 µM (inactive)
47 | COc1ccc(-c2cc(C)nc3c(-c4ccccc4)cnn23)cc1 | > 55.7 µM (inactive)
48 | O=C(/C=C/Nc1ccc(F)cc1)c1ccc(Br)cc1 | > 55.7 µM (inactive)
49 | CCOC(=O)c1ccc2nc(NC(C)=O)sc2c1 | > 55.7 µM (inactive)
50 | CCNc1nc(-c2cc3ccccc3o2)cs1 | > 55.7 µM (inactive)
51 | O=[N+]([O-])c1ccccc1OCCCn1cnc2ccccc21 | > 55.7 µM (inactive)
52 | CC(=O)COc1ccc2c(C)c(-c3ccccc3)c(=O)oc2c1 | > 55.7 µM (inactive)
53 | C=CCNC(=O)c1cc(-c2ccc(Br)cc2)on1 | > 55.7 µM (inactive)
54 | Cc1nnc(SCC(=O)Nc2ccc(-c3nc4ccccc4s3)cc2)s1 | > 55.7 µM (inactive)
55 | O=C(/C=C/Nc1ccccc1F)c1ccc(Br)cc1 | > 55.7 µM (inactive)
56 | O=C(/C(C=Nc1ccc(F)cc1)=C(/O)c1ccco1)C(F)(F)F | > 55.7 µM (inactive)
57 | Nc1ncc(-c2cc3ccccc3oc2=O)s1 | > 55.7 µM (inactive)
58 | Clc1ccc(-n2ncc3c(NCC4CCCO4)ncnc32)cc1 (stereo unspecified) | > 55.7 µM (inactive)
59 | COc1ccc2nc(Nc3ccc4c(c3)OCO4)sc2c1 | > 55.7 µM (inactive)
60 | CCc1ccc(NC(=O)N2CCC(c3ccccc3)C2)cc1 (stereo unspecified) | > 55.7 µM (inactive)
61 | O=C(/C=C/c1ccc(F)cc1)Nc1nc2ccccc2[nH]1 | > 55.7 µM (inactive)
62 | CCOc1ccc2nc(N3CCOCC3)nc(C)c2c1 | > 55.7 µM (inactive)
63 | CCOC(=O)c1sc(NC(=O)c2sccc2C)cc1C | > 55.7 µM (inactive)
64 | Nc1nc2ccc(-c3nc4ccccc4o3)cc2s1 | > 55.7 µM (inactive)
65 | Cc1ccc(NC(=O)Nc2ccc3oc(C)nc3c2)cc1 | > 55.7 µM (inactive)
66 | COc1ccc(NC(=S)Nc2ccc3nccnc3c2)cc1 | > 55.7 µM (inactive)

Row | Structure (SMILES) | EC50
67 | Cc1ccc(/C=C/C(=O)N2CCCC(C)C2)cc1 (stereo unspecified) | > 55.7 µM (inactive)
68 | Nc1ccc2nn(-c3ccccc3)nc2c1 | > 55.7 µM (inactive)
69 | C/C(=C\c1ccccc1)C(=O)Nc1nccs1 | > 55.7 µM (inactive)
70 | Cc1ccc(C(=O)N2CCc3ccccc32)o1 | > 55.7 µM (inactive)
71 | N#C/C(=C\c1ccc(N2CCOCC2)o1)c1nc2ccccc2[nH]1 | > 55.7 µM (inactive)
72 | CCCCCNc1nc(-c2ccccc2)cs1 | > 55.7 µM (inactive)
73 | CN(C)c1ccnc2sc(C(=O)c3ccccc3)c(N)c12 | > 55.7 µM (inactive)
74 | CCOC(=O)c1cnc2c(-c3ccccc3)cnn2c1N | > 55.7 µM (inactive)
75 | O=C(/C=C/c1ccccc1)Nc1ccc(Cl)cn1 | > 55.7 µM (inactive)
76 | Cc1nc2ccc3nc(NC(=O)c4ccco4)sc3c2s1 | > 55.7 µM (inactive)
77 | CCN(CC)c1ccc2cc(C(=O)Nc3ccccn3)c(=O)oc2c1 | > 55.7 µM (inactive)
78 | CC(=O)c1cccc(NC(=S)NC(=O)c2cccc(C)c2)c1 | > 55.7 µM (inactive)
79 | COc1ccc(-c2cc3ncc(-c4ccccc4)c(N)n3n2)cc1 | > 55.7 µM (inactive)
80 | Cc1occc1C(=O)Nc1ccc2c(c1)CCC2 | > 55.7 µM (inactive)
81 | Cc1ccc(-c2cnc(-c3ccncc3)o2)cc1 | > 55.7 µM (inactive)
82 | CN(C)c1ccc(C(=O)OCC(=O)c2cccs2)cc1 | > 55.7 µM (inactive)
83 | CC(C)Oc1ccc2c(=O)c(-c3ccccc3)coc2c1 | > 55.7 µM (inactive)
84 | CC(=O)c1cccc(N/C=C\C(=O)c2ccc(C)cc2)c1 | > 55.7 µM (inactive)
85 | O=C(NC(=S)Nc1ccc(F)cc1)c1ccc2c(c1)OCCO2 | > 55.7 µM (inactive)
86 | COc1ccc2c(c1)oc(=O)c1cc(OC)ccc12 | > 55.7 µM (inactive)
87 | Cc1ccc(-c2cc3nc(C)cc(NCc4ccco4)n3n2)cc1 | > 55.7 µM (inactive)
88 | CC(C)=CC(=O)Nc1nc2ccc([N+](=O)[O-])cc2s1 | > 55.7 µM (inactive)

Row | Structure (SMILES) | EC50
89 | Nc1ccccc1C(=O)OCC(=O)N1CCc2ccccc21 | > 55.7 µM (inactive)
90 | O=C(/C=C/c1cccc(F)c1)N1CCc2ccccc21 | > 55.7 µM (inactive)
91 | Cc1nc(-c2ccc(NC(=O)c3ccccc3C)cc2)cs1 | > 55.7 µM (inactive)
92 | O=C(c1ccccc1)c1ccc(N2CCCC2)cc1 | > 55.7 µM (inactive)
93 | CCc1c(C)[nH]c(C(=O)OCc2ccccc2)c1C | > 55.7 µM (inactive)
94 | O=C(O)c1ccccc1C(=O)Nc1ccc(-c2csc(-c3ccccc3)n2)cc1 | > 55.7 µM (inactive)
95 | O=C(/C(C=Nc1ccc(Br)cc1)=C(/O)c1ccco1)C(F)(F)F | > 55.7 µM (inactive)
96 | Cc1nc(-c2ccc(NC(=O)c3ccccc3Br)cc2)cs1 | > 55.7 µM (inactive)
97 | C=CCNC(=S)NNC(=O)COc1ccc2cc(Br)ccc2c1 | > 55.7 µM (inactive)
98 | Fc1ccc2nc(Nc3nc4cc5c(cc4s3)OCCO5)sc2c1 | > 55.7 µM (inactive)
99 | Cc1nc2ccc(-c3nc4ccccc4o3)cc2[nH]1 | > 55.7 µM (inactive)
100 | O=C(NC(=S)Nc1ccccn1)c1ccc([N+](=O)[O-])cc1 | > 55.7 µM (inactive)
101 | Cc1ccc(C(=O)/C=C/Nc2cccc([N+](=O)[O-])c2)o1 | > 55.7 µM (inactive)
102 | CCCCOC(=O)Nc1nc2ccccc2s1 | > 55.7 µM (inactive)
103 | c1cncc(-c2nc3cc4ccccc4cc3[nH]2)c1 | > 55.7 µM (inactive)
104 | O=C(Cn1cnc2ccccc2c1=O)c1ccc(Cl)cc1 | > 55.7 µM (inactive)
105 | COc1ccc(N/C=C\C(=O)c2ccc3c(c2)OCO3)cc1OC | > 55.7 µM (inactive)
106 | CCOCC(=O)Nc1nc2ccc(OCC)cc2s1 | > 55.7 µM (inactive)
